From article PMC7259758 (PLoS ONE, 2020)

Tests used:
GSK3α(h) = target: T1, GSK3α(h) (Homo sapiens, UniProt P49840); experiment: Radiometric protein kinase assay (Eurofins); format: biochemical; conditions: 40 min; ATP 10 μM; read-out: GSK3α(h) IC50
T1 construct: purchased Eurofins, Dundee, Scotland
Description: (§1) Enzymatic biochemical activities were evaluated in radiometric protein kinase assays (Eurofins, Dundee, Scotland). Kinases are incubated with buffer, substrate and [γ-^33P]-ATP (specific activity approx. 500 cpm/pmol, concentration as required). The reaction is initiated by the addition of the MgATP mix. After incubation for 40 minutes at room temperature, the reaction is stopped by the addition of 3% phosphoric acid solution. 10 μL of the reaction is then spotted onto a P30 filtermat and washed three times for 5 minutes in 75 mM phosphoric acid and once in methanol prior to drying and scintillation counting. All compounds are prepared to 50x final assay concentration in 100% DMSO. Positive control wells contain all components of the reaction with 2% DMSO. Blank wells contain all components of the reaction, with a reference inhibitor replacing the compound of interest. Each kinase is assigned a standard assay concentration of ATP within 20 μM of its apparent Km. Compounds were screened at 1 μM in duplicate or tested at 10 concentrations at half log dilution starting from 10 μM in singlicate. Dose response curves were fitted with four parameter logistic curve to obtain IC50 values. […]
(§2) Staurosporine is used as reference for all tested enzymes except for SRPK3 (reference inhibitor: K-252a. Nocardiopsis sp), NEK2 (reference inhibitor: […]), and CK2, CK2α2, MAPK1, MAPK2 (reference inhibitor: PKR Inhibitor). See Table 1 below for additional details.

SRPK1(h) = target: T2, SRPK1(h) (Homo sapiens, UniProt Q96SB4); experiment: Radiometric protein kinase assay (Eurofins); format: biochemical; conditions: ATP 10 μM
T2 construct: purchased Eurofins, Dundee, Scotland
Description: as §1, §2

SF3B1 = target: T3, SF3B1 (Homo sapiens, UniProt O75533+Q7RTV0); experiment: Competitive antagonist assay (TESLR in the presence of SD6 or hit compound); format: cell-based; conditions: 6 μM compound for one hour, then serial dilutions of sudemycinol C for another 4 hours
T3 construct: endogenous in cells
Description: SK-MEL-2/Luc-MDM2 stable cells were plated at a density of 20,000 cells/well in 96-well plates and incubated overnight at 37°C in 5% CO2.[27, 28] The following day, cells were treated with 14 analogs using serial dilution for one hour. The list of compounds screened as potential TESLR antagonists are show in SI file. After one-hour pre-treatment, 4 μM of SD6 were added to the pre-treated cells for another 4 hours. Either 0.5% DMSO or serial dilutions of SD6 were used to treat cells for 4 hours as controls. At the end of incubation time, ONE-Glo™ EX reagents (Promega) were added to measure the luciferase activity. […]
Fig 6 Competitive antagonist assay. (Left Panel) The assay that identified two antagonists of SD6 activity in the TESLR screen, which are useful for the determination of SF3B1 binding. Relative luminescent units were plotted against corresponding drug concentrations and fitted with a standard four parameter sigmoidal curve with GraphPad Prism. (Right Panel) The structures of the antagonists and SD6. See SI for chemistry details.
. SK-MEL-2/Luc-MDM2 stable cells were plated at a density of 20000/well in 96-well plates and incubated overnight at 37°C in 5% CO2. […]. After one-hour pre-treatment, serial dilutions of the sudemycinol C were added to the pre-treated cells for another 4 hours. […]. At the end of incubation time, ONE-Glo™ EX reagents (Promega) were added to measure the luciferase activity. […]. DR: dose response.

[1] = tested on: MDM2 pre-mRNA splicing in Rh18 cells; experiment: RT-PCR confirmation of splicing changes, MDM2; format: cell-based; conditions: 4 h, SD6 10 μM, compound 1 10 μM, compound 2 5 μM, compound 3 10 μM
Description: (§3) RH-18 cells were cultured in RPMI 1640 medium containing 10% FCS. Cells are all maintained in humidified incubator with 5% CO2 at 37°C. Rh18 cells were exposed to 0.5% DMSO or SD6 10 μM, Cpd1 10 μM, Cpd2 5 μM or Cpd3 10 μM for 4 h. Total RNA was extracted and converted to cDNA. PCR was performed using NEB Q5 Master Mix and specific primers listed below (Table 2) according to the manufacturer’s instruction and standard PCR protocols: 50 ng cDNA and 30 μl of the final reaction volume was used. PCR products were subjected to 3% agarose gel electrophoresis.
(§4) AS patterns were identified with compound treatment for MDM2 and RBM39 transcripts. Ubiquitin (UBQ) transcripts were used as a control since these are not spliced. […] Rh18 cells were treated with either DMSO control or compounds for 4 h. Total RNA was extracted and converted to cDNA. PCR was performed using corresponding primers and PCR products were subjected to 3% agarose gel electrophoresis.

PAK4 (h) = target: T4, PAK4 (h) (Homo sapiens, UniProt O96013); experiment: Radiometric protein kinase assay (Eurofins); format: biochemical; conditions: 40 min; ATP 10 μM; read-out: PAK4 IC50
T4 construct: purchased Eurofins, Dundee, Scotland

[2] = tested on: RBM39 pre-mRNA splicing in Rh18 cells; experiment: RT-PCR confirmation of splicing changes, RBM39; format: cell-based; conditions: 4 h, compound 1 10 μM, compound 2 5 μM
Description: as §3, §4

PAK4 = conditions: read-out: PAK4 IC50 (previously reported designated target data); cited from earlier work

T2 sequence (Q96SB4 whole entry): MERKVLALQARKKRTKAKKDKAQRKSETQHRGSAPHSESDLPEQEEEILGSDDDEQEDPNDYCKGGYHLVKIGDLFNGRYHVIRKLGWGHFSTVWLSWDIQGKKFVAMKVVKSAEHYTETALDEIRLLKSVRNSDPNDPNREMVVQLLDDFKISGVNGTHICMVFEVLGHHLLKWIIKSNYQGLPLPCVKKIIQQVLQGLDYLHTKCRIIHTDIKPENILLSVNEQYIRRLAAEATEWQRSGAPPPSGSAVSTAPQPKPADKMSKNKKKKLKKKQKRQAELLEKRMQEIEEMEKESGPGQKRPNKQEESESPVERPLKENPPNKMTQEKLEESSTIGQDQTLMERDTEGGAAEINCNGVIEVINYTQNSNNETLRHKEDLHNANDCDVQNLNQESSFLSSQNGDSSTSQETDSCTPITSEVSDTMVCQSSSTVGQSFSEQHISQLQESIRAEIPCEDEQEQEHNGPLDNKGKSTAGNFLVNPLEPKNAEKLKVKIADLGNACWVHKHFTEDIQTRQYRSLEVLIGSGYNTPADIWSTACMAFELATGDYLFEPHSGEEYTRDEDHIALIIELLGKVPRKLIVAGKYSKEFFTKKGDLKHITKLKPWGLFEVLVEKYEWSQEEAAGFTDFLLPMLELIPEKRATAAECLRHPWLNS
T1 sequence (P49840 whole entry): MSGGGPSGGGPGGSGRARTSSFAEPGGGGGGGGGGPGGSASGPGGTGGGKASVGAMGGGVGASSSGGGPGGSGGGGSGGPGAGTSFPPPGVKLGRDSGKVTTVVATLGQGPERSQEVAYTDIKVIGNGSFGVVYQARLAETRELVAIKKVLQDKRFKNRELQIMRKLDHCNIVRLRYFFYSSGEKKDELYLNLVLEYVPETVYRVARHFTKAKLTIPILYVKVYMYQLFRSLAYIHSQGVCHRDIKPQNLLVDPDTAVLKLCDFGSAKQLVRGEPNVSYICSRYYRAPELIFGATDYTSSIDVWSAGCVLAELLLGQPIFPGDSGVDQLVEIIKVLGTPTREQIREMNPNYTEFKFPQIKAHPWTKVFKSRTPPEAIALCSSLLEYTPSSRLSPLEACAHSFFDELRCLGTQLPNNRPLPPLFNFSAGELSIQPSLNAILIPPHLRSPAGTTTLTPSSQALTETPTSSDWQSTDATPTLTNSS
T4 sequence (O96013 whole entry): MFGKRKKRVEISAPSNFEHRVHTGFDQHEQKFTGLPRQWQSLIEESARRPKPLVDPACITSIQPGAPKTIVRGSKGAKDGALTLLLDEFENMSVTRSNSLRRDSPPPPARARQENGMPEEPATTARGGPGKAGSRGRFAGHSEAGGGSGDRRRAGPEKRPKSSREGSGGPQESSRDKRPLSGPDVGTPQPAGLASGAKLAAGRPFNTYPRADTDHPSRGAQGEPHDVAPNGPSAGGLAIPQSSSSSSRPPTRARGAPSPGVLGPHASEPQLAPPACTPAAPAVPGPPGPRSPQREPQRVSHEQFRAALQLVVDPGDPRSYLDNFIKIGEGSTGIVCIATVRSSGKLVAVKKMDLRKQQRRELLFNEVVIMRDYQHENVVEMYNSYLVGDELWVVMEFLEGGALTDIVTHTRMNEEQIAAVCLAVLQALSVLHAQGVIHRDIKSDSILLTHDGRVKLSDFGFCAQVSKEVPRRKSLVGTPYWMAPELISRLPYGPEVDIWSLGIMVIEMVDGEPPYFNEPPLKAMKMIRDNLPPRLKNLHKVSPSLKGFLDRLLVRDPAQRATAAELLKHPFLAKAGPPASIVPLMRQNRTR

| inhibition at 1 µM (GSK3α(h)) [%] | inhibition at 1 µM (SRPK1(h); 40 min, read-out: SRPK1 IC50) [%] | Antagonism of the compound's TESLR activity by sudemycinol C (SF3B1) | inhibition at 1 µM (PAK4 (h)) [%] | IC50 (SRPK1(h)) [nM] | SMILES | MDM2 alternative splicing (AS) pattern by RT-PCR [1] | RBM39 alternative splicing (AS) pattern by RT-PCR [2] | IC50 (PAK4) [nM] |
| --- | --- | --- | --- | --- | --- | --- | --- | --- |
| < 50 | < 50 | did not antagonize | < 50 | – | CNC(=O)c1nn(C)c2c1C(C)(C)Cc1cnc(Nc3ccc(N4CCN(C)CC4)cc3)nc1-2 [Compound 1, milciclib] | AS isoform of 785 bp was dominant | transcript at 673 bp showing the greatest abundance | – |
| < 50 | – | did not antagonize | – | 170 | Cc1nc(Nc2[nH]nc3c2CN(C(=O)N[C@H](CN(C)C)c2ccccc2)C3(C)C)c2sccc2n1 [Compound 2, PF-3758309] | […] | transcript at 673 bp showing the greatest abundance | […] |
